Tested on: persister cells of MRSA
Test: Bactericidal activity against persister cells
Type: cell-based, S. aureus
Procedure: Persister cells are a subpopulation of bacterial cultures that are refractory to antibiotic treatment.[28] […] This activity was more rapid than that observed against stationary phase cells. […]
from 10 μg/mL. The bacteria with compounds and untreated control were incubated for 18 h at 37 ̊C under shaking and OD600 was measured.
Microscopy of ΔamiAC MG1655 E. coli
ΔamiAC MG1655 was cultured overnight in LB media at 37 ̊C. Cells were then inoculated in LB media at 1:100 dilution ratio and made to grow till O.D600 0.1. The cells were then treated with 4 μg/mL concentration of vancomycin and VanQAmC10 or left untreated for 2 h. 6 μl of sample was immobilized on 1% agarose pad and microscopy was performed as described above. The experiments were performed three times independently and the images are representative of results from three independent experiments. […]
MRSA ATCC 33591 was grown to mid-log phase at 37 °C. […] The viable bacteria were then counted after 48 h incubation at 37 °C. […]
Antagonization of antibacterial activity of AAV-qC10 was determined by addition of 500 μM N,N՛-diacetyl–L-Lys–D-Ala–D-Ala or 100 μg/mL of lipoteichoic acid to serial dilutions of the test compound. The MIC was then determined against MRSA by measuring the OD600 18-24 […]
Vancomycin was chosen as control antibiotic for MRSA. The initial MIC values of VanQAmC10, vancomycin were determined against the respective bacteria. […]

Q: With `CCCCCCCCCCNC(=O)C[N+](C)(C)CCCNC(=O)C1NC(=O)C2NC(=O)C(NC(=O)C3NC(=O)C(CC(N)=O)NC(=O)C(NC(=O)C(CC(C)C)NC)C(O)c4ccc(c(Cl)c4)Oc4cc3cc(c4OC3OC(CO)C(O)C(O)C3OC3CC(C)(N)C(O)C(C)O3)Oc3ccc(cc3Cl)C2O)c2ccc(O)c(c2)-c2c(O)cc(O)cc21` (stereo not shown) [VanQAmC10 (8)] as the molecule, how does the “activity against persister cells” value read?
A: concentration-dependent bactericidal activity

— article PMC9977398, “Next-generation membrane-active glycopeptide antibiotics that also inhibit bacterial cell division” (Chemical Science, 2023)
